Here are results for 3 substances from publication PMC9563556, “Antibacterial and anti-inflammatory properties of host defense peptides against Staphylococcus aureus” (iScience, 2022).

Assay [1] deals with Staphylococcus aureus strain SH1000. The assay can be described thus: Peptides direct antibacterial properties, broth micro-dilution, growth by OD 600 nm. The format is cell-based. To be noted: for direct antibacterial effect on S. aureus growth: broth micro-dilution in THB, inoculum 5 x 10^5 CFU/mL, 37°C, OD 600 nm every 5 min for 12 h, concentration range of peptide. As for the experimental part:
All experiments used GFP-labelled Staphylococcus aureus strain SH1000, transformed with a GFP-expressing plasmid pCM29 to constitutively express GFP, as previously described ([Boero et al., 2021]). Bacteria were grown overnight in Todd-Hewitt broth (THB) with 10 μg/mL chloramphenicol to reach stationary phase.
Peptides were diluted at different concentrations in α-MEM supplemented with 10% FBS or in THB when testing their effects on macrophages or bacteria, respectively.
Peptides direct antibacterial properties were determined by broth micro-dilution method. Overnight bacterial suspension was diluted in THB to reach a final inoculum concentration of 5 x 10^5 colony-forming units per mL (CFU/mL). Bacterial suspension and peptides dilutions were mixed in equal parts in a flat-bottom 96-well plate in triplicates in a total volume of 200 μL, and incubated at 37°C. Bacterial growth was monitored by measuring OD (600nm) continuously every 5 minutes for 12 h in Clariostar plate reader (BMG labtech) with gentle shaking before each measurement.
On the technique in general: Dilution methods test growth across graded concentrations, often in twofold steps.

Assay [2] deals with primary human macrophages. The assay can be described thus: LPS-induced TNF-α and IL-10 release of macrophages (ELISA). As to conditions: for inhibition of macrophage LPS-mediated activation: 10 ng/mL LPS O111:B4, 24 h, TNF-α and IL-10 by ELISA. The format is cell-based. The protocol: Isolated monocytes were seeded in a 24-well plate at a density of 300,000 cells/well, except where otherwise stated. Monocytes were differentiated to macrophages by culture for 7 days in α-Minimum Essential Medium (α-MEM) supplemented with 10% (v/v) hyclone fetal bovine serum (hyFBS), 100 U/mL penicillin- streptomycin (1% p/s), and 40 ng/mL human recombinant M-CSF. Culture media was refreshed after 3-4 days.
Monocytes were seeded in a 96-well plate at a density of 150,000 cells/well. After 7 days differentiation, macrophages were incubated with fresh media containing a range of peptides concentrations alone or in combination with 10 ng/mL LPS O111:B4 from E. coli. After 24 h stimulation, the supernatant was collected to measure LDH levels or TNF-α and IL-10 by ELISA, according to the manufacturer’s instructions. Both LDH and ELISA assays were performed in three independent experiments with measurements in triplicate.
(In general: An ELISA detects its analyte on a solid surface through an enzyme-linked reagent.)

In assay [3] the test system is primary human macrophages. Nature of the assay: Macrophage phenotype markers CD80 / CD163 by flow cytometry. It counts as cell-based. As to conditions: 24 h, selected peptide concentrations alone or with LPS, n = 3. The protocol: After 7 days differentiation, macrophages were incubated with fresh media with LPS, IL-4, and optimal concentrations of peptides alone or in combination with LPS. After 24 h stimulation, macrophages were detached from the culture plate and processed for staining into a 96-well plate. All washing steps were performed with cold 0,1% (w/v) bovine serum albumin (BSA)/PBS and centrifugation at 5 min, 500 x g. A panel of surface molecules was selected, based on previous reports for human macrophage polarization ([Ambarus et al., 2012]). The staining solutions were prepared by diluting the following fluorochrome-conjugated antibodies in PBS with 0,1% BSA and 1% (v/v) heat-inactivated human serum: CD16 (1:50); CD80 (1:50); CD163 (1:50). As a negative control, staining solution without antibodies was used. Cells were incubated with staining solutions for 30 min on ice, in the dark. Markers expression was measured via flow cytometer (FACSVerse, BD) and data analyzed using FlowJo.
A general note: In flow cytometry, cells or beads pass a laser one at a time.

The subject of assay [4] is primary human macrophages. The assay can be described thus: Human cytokine array G5 after LPS and peptide stimulation. To be noted: 24 h LPS and peptides, n = 2. It counts as cell-based. The protocol:
Qualitative expression of various cytokines and chemokines was measured in duplicate for selected conditions by human cytokine array G5, according to the manufacturer’s instructions.

Assay [5] concerns primary human macrophages infected with S. aureus. Nature of the assay: Confocal imaging, manual counting of intracellular bacteria ("peptides during infection" model). It counts as cell-based. As to conditions: 30 min infection, 50 randomly chosen cells. As for the experimental part:
According to the “peptides during infection” model, after 30 min infection cells were harvested and fixed as described for flow cytometry analysis. Cells membranes were stained with 3 μg/mL Alexa Fluor 647-labelled Wheat Germ Agglutinin (WGA) for 10 min at RT, on a shaking plate. Then, samples were transferred to CELLview slide previously coated with poly-L-lysine, and imaged on a Leica TCS SP5 microscope with a HCX PL AP CS 63x/1.40-0.60 OIL objective (Leica Microsystems). For each condition, the number of intracellular bacteria was counted in 50 randomly chosen cells. Images were adjusted for publication using Image J Fiji.

Assay [6] has the same test system. Nature of the assay: "peptides during differentiation" model, S. aureus phagocytosis by flow cytometry. It counts as cell-based. To be noted: for contribution to phagocytosis: peptides during monocyte differentiation, then infection. The protocol:
(§1) To assess the peptides influence on macrophages antibacterial properties, three different infection models studying intracellular bacteria survival, as outlined in Figures 3A, 5A, and 5D, were adopted. In all models, selected concentrations of peptides were used: 65 μM IDR-1018; 10 μM CATH-2; 10 μM LL-37.
(§2) The first step concerned the “peptides during infection” model, where cells were washed twice before incubation with the peptides for 24 h and subsequently bacteria were directly added to the culture without any washing step. In a subsequent step we assessed the “peptides during differentiation”, where peptides were added to the differentiation media for the first 3 days and removed after the regular media change; cells were washed twice before infection. In the third step we tested “peptides with MSCs”, where macrophages were cultured in presence of MSCs and peptides for 24 h; before infection cells were washed twice. All washing steps, before or after infection, were performed using warm α-MEM.
(§3) In all three models described, the same S. aureus infection protocol was applied. An overnight bacterial culture was diluted in α-MEM to reach a final inoculum concentration of 1 x 10^7 CFU/mL, and opsonized in 5% human pooled serum (HPS) for 15 min at 37°C. Opsonized S. aureus was added to the culture at a multiplicity of infection (MOI) = 1, meaning 1 bacterium per eukaryotic cell. To synchronize bacterial uptake, plates were centrifuged for 5 min, 110 x g at RT, and then moved to the incubator at 37°C, 5% CO2 for additional 25 min or 24 h. To study intracellular bacterial survival, after 30 min the cells were washed twice and cultured in media supplemented with 100 μg/mL gentamicin and 20 μg/mL lysostaphin for 1 h. Afterwards, cells were washed twice and incubated in media with only 5 μg/mL gentamicin. This treatment allows only intracellular bacteria to survive, as both gentamicin and lysostaphin are unable to penetrate mammalian cell membranes within short time periods ([Hamza et al., 2013]; [Hamza and Li, 2014]).
(§4) Samples were analyzed by flow cytometry and CFU counting at 30 min and 24 h after infection. Cells for flow cytometry were detached from the culture plate using 1mM DPBS/EDTA in combination with gentle scraping. When macrophages were cultured together with MSCs, samples were first trypsinzed and then scraped in DPBS/EDTA if cells were still attached to the bottom of the culture plate. Cells were moved to a 96-well plate and fixed in paraformaldehyde 4% before analysis. Samples were measured with MACSquant VYB (Miltenyi Biotech) flow cytometer and data analyzed with FlowJo. […] Non-infected samples were used to set GFP fluorescence baseline and define the proportion of infected, GFP-positive cells.

Assay [7] has as its system intracellular S. aureus in primary human macrophages. The assay can be described thus: "peptides during infection" model, intracellular S. aureus by CFU counting. The format is cell-based. As for the experimental part:
as §1, §2, §3
(§5) To quantify the numbers of intracellular bacteria, cells were lysed with Triton X 0,1% and then plated on Todd-Hewitt agar plates in serial dilutions. Plates were incubated overnight at 37°C after which colonies were counted.

Assay [8] shares this test system. Nature of the assay: "peptides during differentiation" model, intracellular S. aureus by CFU counting. The format is cell-based. As to conditions: 30 min and 24 h, n = 6. The protocol: as §1, §2
as §3, with “This treatment allows only intracellular bacteria to survive, as both gentamicin and lysostaphin are unable to penetrate mammalian cell membranes within short time periods ([Hamza et al., 2013]; [Hamza and Li, 2014]).” left out
as §5

The conditions of assay [9]: cited from earlier work; for binding to LPS: "silent killing" mechanism, ref Coorens et al., 2017b. An excerpt: One may argue that the inhibition of LPS-mediated activation of macrophages was not caused by peptides’ direct interaction with the immune cells. It was shown via a mechanism named “silent killing” that CATH-2 and LL-37 bind LPS to inhibit macrophages receptors activation ([Coorens et al., 2017b]).

For assay [10], the system named is primary human macrophages infected with S. aureus. The assay can be described thus: "peptides during infection" model, S. aureus phagocytosis by flow cytometry. The format is cell-based. As for the experimental part:
as §1, §2, §3, §4

In assay [11] the test system is primary human macrophages. To be noted: ref Pena et al., 2013; cited from earlier work. An excerpt:
In addition to TNF-α and IL-10, the peptides affected the expression of several other cytokines involved in immune cells’ activation and recruitment at the inflammation site (Figure 2E).

Where [12] appears, read: peptides 24 h before and during infection, 65 μM IDR-1018, 10 μM CATH-2, 10 μM LL-37, MOI 1, 30 min, n = 9.
Setting [13] is: peptides in differentiation medium for the first 3 days, MOI 1, 30 min, n = 6.

Entries after “also recorded” stand apart in the source; their conditions may differ.

In the case of “LLGDFFRKSKEKIGKEFKRIVQRIKDFLRNLVPRTES [LL-37, human cathelicidin host defense peptide, InVivogen]”, the “direct antibacterial effect on S. aureus growth” value (“direct antibacterial effect” below) in assay [1] (n = 3) was “did not show antibacterial effects at any concentration tested”. The “inhibition of macrophage LPS-mediated activation” value in assay [2] was “inhibited macrophage lipopolysaccharide-mediated activation”. In assay [3], the “polarization of macrophages toward M1 (CD80) or M2 (CD163) phenotype” value is recorded as “kept macrophages in an intermediate state”. Also, the “expression of MIP-1β, RANTES and MCP-1,2,3” value in assay [4] is given as “stronger inhibition of the LPS activation of macrophages”. Moreover, the “bacterial uptake by macrophages, manual counting of intracellular bacteria” value (shortened to “bacterial uptake by macrophages”) in [5] was “did not provide such effect”. Also, the contribution to phagocytosis result in assay [6] is “had no impact”. In addition, the “effect on S. aureus surviving intracellularly (CFU), 30 min and 24 h” value in [7] (n = 9) is on record as “no effects were observed”. Further, the “macrophage intracellular killing (CFU)” value in [8] is recorded as “had no impact”. Also, the “binding to LPS” value in assay [9] was “bind LPS”.
Turning to “RFGRFLRKIRRFRPKVTITIQGSARF-NH2 [CATH-2, chicken cathelicidin host defense peptide, CPC Scientific]”, in assay [1] (THB, 12 h growth curve, compared with LPS inhibition assay), the “concentration arresting S. aureus growth, relative to that needed to inhibit macrophage LPS-mediated activation” value worked out at 10 times lower. For the same substance, the “direct antibacterial effect” value in assay [1] (n = 3) is reported as “had direct antibacterial properties”. In assay [2], the “inhibition of macrophage LPS-mediated activation” value is recorded as “inhibited macrophage lipopolysaccharide-mediated activation”. Besides, the “polarization of macrophages toward M1 (CD80) or M2 (CD163) phenotype” value in assay [3] is “kept macrophages in an intermediate state”. Also, the “bacterial load, geometric mean of GFP signal, 30 min” value in assay [10] (setting [12]) is “slightly reduced the bacterial load in macrophages”. Further, the “bacterial uptake by macrophages” value in [5] was “reduced the bacterial uptake by macrophages”. Further, in assay [6], the contribution to phagocytosis entry is recorded as “lost its contribution to phagocytosis; also recorded: had no impact”. In addition, in assay [7] (10 μM CATH-2, 65 μM IDR-1018, 10 μM LL-37, n = 9), the “number of S. aureus surviving intracellularly (CFU), 30 min” value is “significantly reduced”. Also, the “number of S. aureus surviving intracellularly (CFU), 24 h” value in assay [7] (gentamicin and lysostaphin after 30 min, n = 9) is listed as “not statistically significant; also recorded: comparable to the non-stimulated group”. Also, in [8], the “macrophage intracellular killing (CFU)” value is listed as “had no impact”. The “binding to LPS” value in assay [9] is listed as “bind LPS”.
For “VRLIVAVRIWRR-NH2 [IDR-1018, bovine-derived cathelicidin host defense peptide, CPC Scientific]”, in [1] (THB, 12 h growth curve, OD 600 nm, n = 3), the “concentration from which the start of S. aureus exponential growth is delayed” value was at least 65 µM. In addition, in [1] (n = 3), the “direct antibacterial effect” value is listed as “did not show antibacterial effects at any concentration tested”. Also, in assay [2], the “inhibition of macrophage LPS-mediated activation” value is “inhibited macrophage lipopolysaccharide-mediated activation”. For the same substance, in [2] (10 ng/mL LPS, 24 h, TNF-α and IL-10 ELISA), the “concentration required for inhibition of LPS-mediated activation, compared among peptides” value was “higher concentrations of IDR-1018 were required”. Moreover, in [10] (setting [12]), the “bacterial load, geometric mean of GFP signal, 30 min” value was “markedly decrease phagocytosis” and the “fraction of infected cells (macrophages that phagocytosed at least 1 bacterial cell), 30 min” value is on record as “significantly reduced the number of infected cells”. For the same substance, the “amount of phagocytosed S. aureus, 24 h” value in assay [10] (peptides during infection model, 24 h after infection, n = 9 (Figure S5)) is “reduced the amount of phagocytosed S. aureus”. The “bacterial uptake by macrophages” value in [5] was “reduced the bacterial uptake by macrophages”. In addition, in assay [6] (setting [13]), the “number of internalized bacteria (geometric mean of GFP signal), 30 min” value was “significantly reduced” and the “proportion of infected macrophages, 30 min” value is recorded as “significantly reduced”. For the same substance, the “effect on S. aureus surviving intracellularly (CFU), 30 min and 24 h” value in assay [7] (n = 9) is on record as “no effects were observed”. The “macrophage intracellular killing (CFU)” value in assay [8] is listed as “had no impact”. Also, in assay [11], the “polarization of macrophages toward M1 or M2 phenotype” value is recorded as “did not correlate with the polarization of macrophages toward a clear M1 or M2 phenotype”. Further, the “binding affinity to LPS” value in assay [9] (ref Wieczorek et al., 2010) is given as “did not show significant binding affinity to LPS”.
